According to patent US9303033B2, “Pyrazolopyrimidines and related heterocycles as CK2 inhibitors” (SENHWA BIOSCIENCES, INC., priority 2009, dated 2016):
Where two headings read alike, the source gives them in different places.

Columns and labels:
recombinant PIM-1 = recombinant PIM-1 (Homo sapiens (Human), UniProt P11309); assay: PIM-1 assay (33P-ATP filter binding); format: biochemical; details: read-out: PIM1: IC50 (30 μM ATP)
CK2 ααββ = CK2 ααββ (Homo sapiens (Human), UniProt P68400); assay: CK2 assay (cell-free, 33P-ATP, phosphocellulose filter plate); format: biochemical
Chain of CK2 ααββ (P68400 whole entry): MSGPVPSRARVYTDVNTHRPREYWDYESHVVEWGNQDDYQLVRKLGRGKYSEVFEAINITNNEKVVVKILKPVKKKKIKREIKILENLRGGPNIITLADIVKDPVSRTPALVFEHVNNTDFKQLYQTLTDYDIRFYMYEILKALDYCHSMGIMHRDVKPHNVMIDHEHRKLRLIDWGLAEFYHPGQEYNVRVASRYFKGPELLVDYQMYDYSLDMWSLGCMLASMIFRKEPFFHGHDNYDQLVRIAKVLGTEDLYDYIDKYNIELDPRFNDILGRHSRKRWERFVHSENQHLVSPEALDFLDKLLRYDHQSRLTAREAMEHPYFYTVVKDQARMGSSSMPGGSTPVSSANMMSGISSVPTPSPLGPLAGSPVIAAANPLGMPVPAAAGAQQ
Chain of CK2 ααββ (P67870 whole entry partner): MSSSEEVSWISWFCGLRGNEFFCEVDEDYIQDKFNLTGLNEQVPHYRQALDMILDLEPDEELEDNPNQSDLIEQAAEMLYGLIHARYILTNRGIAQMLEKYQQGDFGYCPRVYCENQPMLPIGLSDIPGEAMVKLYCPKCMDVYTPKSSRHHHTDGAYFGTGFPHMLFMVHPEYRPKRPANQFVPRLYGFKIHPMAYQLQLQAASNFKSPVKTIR

recombinant human PIM2 = recombinant human PIM2 (Homo sapiens (Human), UniProt Q9P1W9); assay: PIM-2 assay (33P-ATP filter binding); format: biochemical; details: for IC50: PIM2: IC50 (5 μM ATP), 5 μM ATP; for PIM2: % inh […]: at […] compound
Chain of recombinant human PIM2 (Q9P1W9 whole entry): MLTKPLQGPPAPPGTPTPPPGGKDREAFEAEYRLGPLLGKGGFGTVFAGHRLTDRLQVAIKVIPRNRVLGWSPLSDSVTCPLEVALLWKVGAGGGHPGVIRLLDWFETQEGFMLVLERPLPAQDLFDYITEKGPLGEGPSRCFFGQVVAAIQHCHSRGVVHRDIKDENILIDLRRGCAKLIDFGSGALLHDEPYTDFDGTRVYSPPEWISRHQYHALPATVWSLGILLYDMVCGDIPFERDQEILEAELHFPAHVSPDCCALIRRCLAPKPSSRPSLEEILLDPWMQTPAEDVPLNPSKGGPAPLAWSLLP

MDAMB453 = assay: Cell proliferation assay with Alamar Blue (AB), MDAMB453; format: cell-based
Description: (§1) A representative cell-proliferation assay protocol using Alamar Blue dye (stored at 4° C., use 20 ul per well) is described hereafter.
(§2) a. Split and trypsinize cells.
(§3) b. Count cells using hemocytometer.
(§4) c. Plate 4,000-5,000 cells per well in 100 μl of medium and seed into a 96-well plate according to the following plate layout. Add cell culture medium only to wells B10 to B12.
(§5) d. Add 100 μl of 2× drug dilution to each well in a concentration shown in the plate layout above. […] Total volume is 200 μl/well.
(§6) e. Incubate four (4) days at 37° C., 5% CO2 in a humidified incubator.
(§7) f. Add […] Alamar Blue reagent to each well.
(§8) g. Incubate for four (4) hours at 37° C., 5% CO2 in a humidified incubator.
(§9) h. Record fluorescence at an excitation wavelength of 544 nm and emission wavelength of 590 nm using a microplate reader.
(§10) In the assays, cells are cultured with a test compound for approximately four days, the dye is then added to the cells and fluorescence of […] dye is detected after approximately four hours. Different types of cells can be utilized in the assays (e.g., HCT-116 human colorectal carcinoma cells, PC-3 human prostatic cancer cells, MDA-MB231 human breast cancer cells, K-562 human chronic myelogenous leukemia (CML) cells, MiaPaca human pancreatic carcinoma cells, MV-4 human acute myeloid leukemia cells, and BxPC3 human pancreatic adenocarcinoma cells).

[1] = test system: BxPC3 human pancreatic adenocarcinoma cells; assay: Cell proliferation assay with Alamar Blue (AB), BxPC3; format: cell-based
Description: as §1, §2, §3, §4, §5, §6, §7, §8, §9, §10

[2] = Homo sapiens, MDA-MB-453, MDAMB453 cells, read-out: AB: MDAMB453
[3] = Homo sapiens, BXPC-3, read-out: AB: BxPC3
[4] = MDAMB453 cells, read-out: AB: MDAMB453 IC50

Chain of recombinant PIM-1 (P11309 whole entry): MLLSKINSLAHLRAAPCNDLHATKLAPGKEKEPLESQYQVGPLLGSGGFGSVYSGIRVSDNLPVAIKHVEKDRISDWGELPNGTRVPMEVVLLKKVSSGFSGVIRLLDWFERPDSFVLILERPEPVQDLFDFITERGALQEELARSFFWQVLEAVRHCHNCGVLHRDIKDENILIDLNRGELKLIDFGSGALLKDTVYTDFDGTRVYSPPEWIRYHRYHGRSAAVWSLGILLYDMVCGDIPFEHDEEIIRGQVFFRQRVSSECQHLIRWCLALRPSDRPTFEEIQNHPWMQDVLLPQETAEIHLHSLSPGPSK

SMILES | IC50 (recombinant PIM-1) [nM] | IC50 (CK2 ααββ) [nM] | IC50 (recombinant human PIM2) [nM] | IC50 (MDAMB453; [2]) [nM] | IC50 [1, 3] [µM] | IC50 (MDAMB453; [4]) [nM] | IC50 ([1]; read-out: AB: BxPC3 IC50) [µM] | PIM2: % inh […] (recombinant human PIM2) [%]
CC(C)CNc1cc(NC2CC2)n2ncc(/C=C3\SC(=O)NC3=O)c2n1 [Example F3] | 2060 | < 1000 | 1640 | – | – | – | – | –
CCN1CCCC1CNc1cc(NC2CC2)n2ncc(/C=C3\SC(=O)NC3=O)c2n1 (centres unmarked) [Example G3] | 2060 | < 100 | 1850 | 7700 | 9.45 | – | – | –
CC(O)CNc1cc(NC2CC2)n2ncc(/C=C3\SC(=O)NC3=O)c2n1 (centres unmarked) [Example H3] | 2390 | < 1000 | > 2500 | – | – | – | – | –
CN(C)c1cc(NC2CC2)n2ncc(/C=C3\SC(=O)NC3=O)c2n1 [Example I3] | > 2500 | < 100 | 876 | – | – | – | – | –
O=C1NC(=O)/C(=C/c2cnn3c(NC4CC4)cc(Nc4cccc(Cl)c4)nc23)S1 [Example J3] | > 2500 | < 1000 | > 2500 | – | – | – | – | –
O=C1NC(=O)/C(=C/c2cnn3c(NC4CC4)cc(N4CCOCC4)nc23)S1 [Example K3] | 918 | < 1000 | 1390 | – | – | – | – | –
CCN(CC)c1cc(NC2CC2)n2ncc(/C=C3\SC(=O)NC3=O)c2n1 [Example L3] | > 2500 | < 1000 | 1430 | – | – | – | – | –
CN1CCC(N(C)c2cc(NC3CC3)n3ncc(/C=C4\SC(=O)NC4=O)c3n2)C1 (centres unmarked) [Example M3] | 1450 | < 100 | 1440 | – | – | – | – | –
O=C1NC(=O)/C(=C/c2cnn3c(NC4CC4)cc(NCCF)nc23)S1 [Example N3] | > 2500 | < 1000 | > 2500 | – | – | – | – | –
CN1C(=O)S/C(=C\c2cnn3c(NC4CC4)cc(Nc4cccc(Cl)c4)nc23)C1=O [Example P3] | > 2500 | < 1000 | > 2500 | – | – | – | – | –
CCCS(=O)(=O)Nc1cccc(-c2cc(NC3CC3)n3ncc(/C=C4\NC(=O)NC4=O)c3n2)c1 [Example T4] | – | < 100 | > 2500 | 1710 | 2.74 | – | – | –
O=C1NC(=O)C(=Cc2cnn3c(NC4CC4)cc(Nc4ccc(OCCN5CCOCC5)c(Cl)c4)nc23)N1 [Example U42] | – | < 10 | – | – | – | 1090 | 2.46 | 48.912
O=C1NC(=O)/C(=C/c2cnn3c(NCC4CC4)cc(Nc4cccnc4)nc23)N1 [Example V1] | – | < 100 | > 2500 | 5090 | 6.19 | – | – | –
CN1CCC(Nc2cc(NC3CC3)n3ncc(/C=C4\NC(=O)NC4=O)c3n2)CC1 [Example V2] | – | < 10 | 1370 | 1480 | 1.63 | – | – | –
O=C1NC(=O)/C(=C/c2cnn3c(NC4CC4)cc(-c4cccc(CO)c4)nc23)N1 [Example V3] | – | < 10 | 649 | 477 | 5.17 | – | – | –
CNc1cc(-c2cccc(CNC(C)=O)c2)nc2c(/C=C3\NC(=O)NC3=O)cnn12 [Example V4] | – | < 100 | > 2500 | 12400 | > 30 | – | – | –
Cc1ccc(Nc2cc(NCC3CC3)n3ncc(/C=C4\NC(=O)NC4=O)c3n2)nc1 [Example W1] | – | < 100 | > 2500 | 7420 | 9.21 | – | – | –
COC(=O)c1cccc(-c2cc(NC3CC3)n3ncc(/C=C4\NC(=O)NC4=O)c3n2)c1 [Example W3] | – | < 10 | > 2500 | 1710 | 2.05 | – | – | –
CC(=O)c1cccc(-c2cc(NC3CC3)n3ncc(/C=C4\NC(=O)NC4=O)c3n2)c1 [Example W4] | – | < 10 | 2080 | 12300 | > 30 | – | – | –
O=C1NC(=O)/C(=C/c2cnn3c(NCC4CC4)cc(Nc4ccc(Cl)nc4)nc23)N1 [Example X1] | – | < 100 | > 2500 | 6940 | 7.99 | – | – | –
CS(=O)(=O)c1cccc(-c2cc(NC3CC3)n3ncc(/C=C4\NC(=O)NC4=O)c3n2)c1 [Example X3] | – | < 10 | > 2500 | 517 | 13.1 | – | – | –
CCS(=O)(=O)Nc1cccc(-c2cc(NC3CC3)n3ncc(/C=C4\NC(=O)NC4=O)c3n2)c1 [Example X4] | – | < 10 | 1730 | > 30000 | > 30 | – | – | –
CCCCS(=O)(=O)Nc1cccc(-c2cc(NC3CC3)n3ncc(/C=C4\NC(=O)NC4=O)c3n2)c1 [Example Y4] | – | < 10 | > 2500 | 1980 | 2.25 | – | – | –
CN(C)CCCOc1cccc(-c2cc(NC3CC3)n3ncc(/C=C4\NC(=O)NC4=O)c3n2)c1 [Example Z3] | – | < 10 | 2210 | 284 | 2.92 | – | – | –
O=C1NC(=O)/C(=C/c2cnn3c(NC4CC4)cc(-c4cccc(NS(=O)(=O)C5CC5)c4)nc23)N1 [Example Z4] | – | < 10 | > 2500 | 15700 | 29 | – | – | –

Now from value to compound:

IC50 (recombinant PIM-1) [nM] | IC50 (CK2 ααββ) [nM] | IC50 (recombinant human PIM2) [nM] | IC50 (MDAMB453; [2]) [nM] | IC50 [1, 3] [µM] | IC50 (MDAMB453; [4]) [nM] | IC50 ([1]; read-out: AB: BxPC3 IC50) [µM] | PIM2: % inh […] (recombinant human PIM2) [%] | SMILES
– | < 10 | 48.7 | 14900 | 10.6 | – | – | – | NCc1cccc(-c2cc(NC3CC3)n3ncc(/C=C4\NC(=O)NC4=O)c3n2)c1 [Example R4]
– | < 10 | 1300 | 3510 | 3.88 | – | – | – | O=C1NC(=O)/C(=C/c2cnn3c(NC4CC4)cc(NN4CCOCC4)nc23)N1 [Example S2]
– | < 10 | 614 | 330 | 10.6 | – | – | – | O=C1NC(=O)/C(=C/c2cnn3c(NC4CC4)cc(-c4cccc(O)c4)nc23)N1 [Example S3]
– | < 10 | > 2500 | 20000 | 4.61 | – | – | – | CC(O)c1cccc(-c2cc(NC3CC3)n3ncc(/C=C4\NC(=O)NC4=O)c3n2)c1 (centres unmarked) [Example S4]
– | < 10 | – | – | – | 2740 | 5 | 44.49 | O=C1NC(=O)C(=Cc2cnn3c(NC4CC4)cc(Nc4ccc(OCCN5CCOCC5)cc4F)nc23)N1 [Example S42]
– | < 10 | 509 | 2200 | 12.3 | – | – | – | O=C1NC(=O)/C(=C/c2cnn3c(NCC4CC4)cc(Nc4cccc(Cl)c4)nc23)N1 [Example T1]
– | < 10 | 998 | 2490 | 6.9 | – | – | – | O=C1NC(=O)/C(=C/c2cnn3c(NC4CC4)cc(NCC4CC4)nc23)N1 [Example T2]
– | < 10 | 891 | 402 | 1.54 | – | – | – | O=C1NC(=O)/C(=C/c2cnn3c(NC4CC4)cc(-c4cccc(OC(F)(F)F)c4)nc23)N1 [Example T3]
– | < 10 | – | – | – | 2090 | 5.33 | 44.33 | CN(C)CCCOc1ccc(Nc2cc(NC3CC3)n3ncc(C=C4NC(=O)NC4=O)c3n2)cc1Cl [Example T42]
– | < 10 | 766 | 12800 | > 30 | – | – | – | C[C@H](Nc1cc(NC2CC2)n2ncc(/C=C3\NC(=O)NC3=O)c2n1)C1CC1 [Example U2]
– | < 10 | > 2500 | 3740 | 3.68 | – | – | – | NC(=O)c1cccc(-c2cc(NC3CC3)n3ncc(/C=C4\NC(=O)NC4=O)c3n2)c1 [Example U3]
– | < 10 | > 2500 | 1260 | 8.13 | – | – | – | O=C1NC(=O)/C(=C/c2cnn3c(NC4CC4)cc(-c4cccnc4)nc23)N1 [Example U4]
